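Method: 48-hour compound exposure of cells in 96-well plates, five concentrations, linear interpolation of endpoints. The concentration for full growth arrest is given as TGI.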 Where a SMILES comes first, the peptide text is derived from it. The star is where a group is joined. Cbz = O=C(OCc1ccccc1)*
Tests used:
Assay in all cases: inhibition of tumour cell growth, NCI panel, 48 h
[1] = tested on: HOP-92 NSCLC
[2] = tested on: LOX IMVI melanoma
[3] = tested on: EKVX NSCLC
[4] = tested on: SK-MEL-28 melanoma
[5] = tested on: SN12C renal
[6] = tested on: SF-268 CNS
[7] = tested on: UO-31 renal
[8] = tested on: HCT-15 colon
[9] = tested on: HS 578T breast
[10] = tested on: UACC-62 melanoma

SMILES | TGI [1] [µM] | TGI [2] [µM] | TGI [3] [µM] | TGI [4] [µM] | TGI [5] [µM] | TGI [6] [µM] | TGI [7] [µM] | TGI [8] [µM] | TGI [9] [µM] | TGI [10] [µM]
CN(C)N1C(=C(C#N)C#N)C(c2ccccc2)CC1C#N (centres undefined) | > 100 | > 100 | > 100 | > 100 | > 100 | > 100 | > 100 | > 100 | > 100 | > 100
CC1(N2CCOCC2)CC2C(=[N+]1[O-])CCC/C2=N/O (centres undefined) |  | > 100 | > 100 | > 100 | > 100 | > 100 | > 100 | > 100 | > 100 | > 100
Cc1c2ccccc2c(/C=N/NC(=O)CSCC(=O)N/N=C/c2c3ccccc3c(C)c3ccccc23)c2ccccc12 | 38.6 | > 100 | > 100 | > 100 | > 100 | > 75.3 | > 100 | > 100 | > 100 | > 100
CCOC(=O)c1nc2ccccc2nc1Nc1cc(OC)c(OC)c(OC)c1 | > 100 |  | > 100 | > 100 | > 100 | > 100 | > 100 | > 100 | > 100 | > 100
CN(C)c1ccc(-c2c(C#N)c(-c3ccccc3)n(NS(=O)(=O)c3ccccc3)c(=O)c2C#N)cc1 | > 100 | > 100 | > 100 | > 100 | > 100 | > 100 |  | > 100 | > 100 | > 100
N#C/C=C(/NC(=O)Nc1ccccc1)N1CCCC1 | > 62.2 | 97.4 | > 97 | > 83.3 | > 100 | > 46.4 | > 100 | > 100 | > 100 | > 100
C#CCOC(=O)C=[N+]=[N-] | > 10 | > 10 | > 10 | > 10 | > 10 | > 10 | > 10 | > 10 |  | > 10
Cc1cccc(C)c1NC(=S)N/C=C(\C#N)C(N)=O | > 100 | > 100 | > 100 | > 100 | > 100 | > 100 | > 100 | > 100 | > 100 | > 100
COc1ccc(C2c3cc4c(cc3OC(N3CCOCC3)C2C)OCO4)cc1OC (centres undefined) | > 92.3 | > 93.7 | > 100 | > 100 | > 100 | > 100 | > 100 | > 100 | 22.1 | > 82.9
O=C1CC(Nc2ccccc2)c2c(Cl)sc(Cl)c21 (centres undefined) | 3.13 | 2.09 | 3.4 | 3.54 | 2.66 |  | 2.57 | 2.36 | > 100 | 2.69
OC1C2CN3CCN(C2)CC1(c1ccccc1)C3 (centres undefined) |  | > 100 | > 100 | > 100 | > 100 | > 100 | > 100 |  | > 100 | > 100
CC(C)(C)c1ccc(O)c(C(O)c2ccccn2)c1 (centres undefined) |  | > 100 | > 100 | > 100 | > 100 | > 100 | > 100 | > 100 | > 100 | 26.4
COc1cc(O)c2c(=O)c3cccc(C)c3[nH]c2c1 |  | > 10 | > 10 | > 10 | > 10 | > 10 |  | > 10 | > 10 | > 10
CN(C)CCNc1c(O)c2c(c(O)c1Cl)C(=O)C=CC2=O | 4.25 |  | 7.69 | 4.36 | 3.41 | 35.2 | 4.75 | 4.29 | 7.56 | 3.74
CCOc1cc2c(cc1OC)c[n+](C)c1c3cc(OC)c(OC)cc3ccc21 | > 60.3 | > 81.3 | > 100 | > 100 | > 100 | > 100 | > 100 | > 100 |  | > 100
CC1=C[C@H](C[C@]2(C)c3c(c4c(C)cccc4oc3=O)O[C@@H]2C)OC1=O |  | > 100 | > 100 |  | > 100 | 63.4 | > 100 | > 100 | > 100 | > 100
CCOC(=O)CCC(NC(=O)C(CC(=O)OC)NC(=O)OCc1ccccc1)C(=O)NC(CC(=O)OC)C(=O)NC(CCC(=O)OCC)C(=O)NC(CC(=O)OC)C(=O)NC(CCC(=O)OCC)C(=O)NC(CC(=O)OCC)C(=O)OCC (centres undefined) (Cbz-D(OMe)E(OEt)D(OMe)E(OEt)D(OMe)E(OEt)D(OEt)-OEt; configuration not given here) |  | > 100 |  |  | > 100 |  | > 100 | > 100 |  | > 100
O=[N+]([O-])C(/C(Cl)=C(/Cl)N1CCOCC1)=C1\Nc2ccccc2O1 |  |  | > 100 | > 100 | > 100 | > 100 | > 100 | > 100 | > 100 | > 100
CCCCOc1ccc(/C=C/C2=[N+](CCO)CCO2)cc1 | > 100 |  | > 100 | > 100 | > 100 | > 100 | > 100 | > 100 | > 100 | > 100
Cc1cc2c(cc1Cl)SSc1cc(Cl)c(C)cc1S(=O)(=O)Nc1nc(N)nn1C(O)n1nc(N)nc1NS2(=O)=O | > 10 | > 10 | > 10 | > 10 | > 10 | > 10 | > 10 | > 10 | > 10 | 
CCOC(=O)c1ccc(N2C(=O)/C(=C/c3ccc(N(CCC#N)CCC#N)cc3)N=C2c2cc([N+](=O)[O-])ccc2Cl)cc1 | > 100 | > 100 | > 100 | > 100 | > 100 | > 100 | > 100 | > 100 |  | > 100
CSC(=Nc1ccccc1)c1c(C)[nH]n(-c2ccccc2)c1=O |  | > 100 | > 100 | > 100 | > 100 | > 100 | > 100 | > 100 | > 100 | > 100
Cc1ccccc1NC(=O)C(=O)C(C1OC(=O)c2ccccc21)[N+](=O)[O-] (centres undefined) | > 100 | > 100 | > 100 | > 100 | > 100 | > 100 | > 100 | > 100 |  | > 100

Reference: PubChem BioAssay (NCI)
